Read-outs that look alike come from different tables or passages of the source.
Columns and labels:
[1] = system: Pseudomonas aeruginosa (12 isolates from Cystic Fibrosis patients), planktonic bacteria; experiment: Planktonic susceptibility to antibiotics and antibiotic combinations (challenge plate), 24 h exposure; type: cell-based
[2] = system: Biofilms of Pseudomonas aeruginosa (12 isolates from Cystic Fibrosis patients); experiment: Biofilm susceptibility to antibiotics and antibiotic combinations (peg lid device), 24 h exposure; type: cell-based; conditions: count apparently resistant isolates of 12
[3] = system: P. aeruginosa ATCC 27853 biofilms; experiment: Peg lid biofilm susceptibility testing, qualitative (MBEC) and quantitative (MBIC, MBCB) end points; type: cell-based, Pseudomonas aeruginosa
Experimental: Qualitative end points. According to CLSI standards % the MIC is defined as the lowest concentration of an antimicrobial agent that prevents visible growth in the challenge medium after a set period of incubation. By contrast, the MBEC is defined as the lowest concentration of antimicrobial agent that prevents visible growth from occurring in the recovery medium used to collect biofilm cells^17. The MBEC can be determined using the protocol presented here, and is measured after the recovery medium has been incubated for a suitable period of time, the length of which depends on the growth rate of the microorganism. Quantitative end points. […] This definition can be extended to both planktonic and biofilm cells and these end points will be denoted as the MBCP and MBCB, respectively. […] The technique presented here allows the MBCB or MLCB to be calculated. Another measure of biofilm susceptibility that has been proposed is the minimum biofilm inhibitory concentration (MBIC)^38,39. Here, the MBIC is defined as the lowest concentration of an antimicrobial at which there is no time-dependent increase in biofilm MVCC when an early exposure time is compared with a later exposure time. The MBIC thus corresponds to the intersecting point of two concentration-dependent killing curves, and therefore, it is possible to distinguish between biofilm resistance and tolerance on the basis of VCC (FIG. 8). (iii) Read the OD of the microtiter plate wells at 650 nm using the microtiter plate reader and visually inspect the wells for growth. […] (viii) Score the spot plates for growth by colony counting using the same approach described in Step 8. Determine the mean VCCs and SD for the broth culture using equations (2) and (3). Calculate biofilm mean log-killing and SD using equation (5). […] The biofilms were then exposed to gentamicin for either 2 or 20 hours; qualitative and quantitative determinations of biofilm cell survival were then performed. For ease of understanding, we focus on a single antibiotic.

[4] = 12 isolates from Cystic Fibrosis patients, 24 hours exposure, count apparently resistant isolates of 12

Row | Molecule | Pseudomonas resistance to individual antibiotics and antibiotic combinations, Planktonic [1, 4] | Pseudomonas resistance to individual antibiotics and antibiotic combinations, Biofilm [2] | also measured
1 | NCC[C@H](O)C(=O)N[C@@H]1C[C@H](N)[C@@H](O[C@H]2O[C@H](CN)[C@@H](O)[C@H](O)[C@H]2O)[C@H](O)[C@H]1O[C@H]1O[C@H](CO)[C@@H](O)[C@H](N)[C@H]1O [AK, Amikacin] | 8 | 11 | –
2 | C[C@H]1[C@H](NC(=O)/C(=N\OC(C)(C)C(=O)O)c2csc(N)n2)C(=O)N1S(=O)(=O)O [AZTR, Aztreonam] | – | – | Pseudomonas resistance to individual antibiotics and antibiotic combinations, Planktonic [1]: 0
3 | CC(C)(O/N=C(\C(=O)N[C@@H]1C(=O)N2C(C(=O)[O-])=C(C[n+]3ccccc3)CS[C@H]12)c1csc(N)n1)C(=O)O [CFTZ, Ceftazidime] | 3 | 12 | –
4 | O=C(O)c1cn(C2CC2)c2cc(N3CCNCC3)c(F)cc2c1=O [CIPRO, Ciprofloxacin] | – | – | Pseudomonas resistance to individual antibiotics and antibiotic combinations, Planktonic [1]: 4
5 | C[C@@H](O)[C@H]1C(=O)N2C(C(=O)O)=C(SCCN=CN)C[C@H]12 [IMP] | 12 | 12 | –
6 | NC[C@H]1O[C@H](O[C@H]2[C@H](O)[C@@H](O[C@H]3O[C@H](CO)[C@@H](O)[C@H](N)[C@H]3O)[C@H](N)C[C@@H]2N)[C@H](N)C[C@@H]1O [TB, Tobramycin] | 3 | 12 | –
7 | gentamicin | 8 | 12 | MBCB ([3]; 2 h exposure): > 512 µg/mL; MBCB ([3]; 20 h exposure): 512 µg/mL; MBEC ([3]; exposed for 2 or 20 hours, biofilms grown in LB broth): > 512 µg/mL; MBIC ([3]; from VCC, 2 h compared with 20 h exposure): 128 µg/mL

— patent publication US20120329675A1, “Testing of Biofilm for Anti-microbial Agent Susceptibility” (priority 2009, published 2012)
